The nature of this experiment: Trolox relative activity in ORAC method (antiradical activity in serum). It is filed as biochemical, human. To be noted: for Trolox relative activity: ORAC method, human blood serum, 60-μM 4-vinyl-2,6-dimethoxyphenol, 300-μM α-tocopherol. As to the method: 2) Trolox Relative Activity in ORAC Method
10 μl of a test substance in a designated concentration, or
6-hydroxy-2,5,7,8-tetramethylchroman-2-carboxylic acid (Trolox) solution is added to 10 μl of 200-fold diluted solution of human blood serum. Then, 180 μl of 3.73-mg/l β-phycoerythrin (β-PE) is added, and the mixture is preheated at 37° C. for 1 min. 10 μl of 80-mM 2,2′-azobis(2-amidinopropane)-dihydrochloride (AAPH) is then added, and the reaction is started at 37° C. For the dilution of the serum or reagents added, phosphate buffer (75 mM, pH 7.0) is used. As a control, this phosphate buffer is used in place of the test substance. Fluorescence intensity (Ex: 540 nm, Em: 565 nm) of the reactant is measured every 2 min after the start of the reaction, and the relationship between the fluorescence intensity (y-axis) and the time x-axis) is plotted on a graph. The area (S) enclosed by the obtained curve, x and y axes is calculated for the test substance, Trolox and the control. The antiradical activity of the test substance in the serum is calculated as a Trolox relative activity using the following equation. Trolox relative activity=(Test substance's S−Control's S)/(Trolox's S−Control's S)×(Trolox's concentration/Test substance's concentration) In this testing system, AAPH generates peroxyradicals, and the peroxyradicals oxidize the substrate β-PE, which results in a reaction to eliminate fluorescence of β-PE. Trolox is a derivative of water-soluble vitamin E, and is used as a standard substance of the antioxidation reaction in this testing system. These reaction substrate and standard substance are those used in an oxygen radical absorbance capacity (ORAC) method. The ORAC method is widely used to obtain antioxydation and antiradical activities of biological samples and natural materials as values relative to those of a standard substance, in an easy and accurate manner. (5) Rancimat Test

`C=Cc1cc(OC)c(O)c(OC)c1` [Example 7, 4-vinyl-2,6-dimethoxyphenol] registered a Trolox relative activity of 0.58. Also, where the note is “in serum”, the “Trolox relative activity in serum relative to α-tocopherol” value is listed as “approximately 7 folds”.
`Cc1c(C)c2c(c(C)c1O)CC[C@@](C)(CCC[C@H](C)CCC[C@H](C)CCCC(C)C)O2` [compound 1, α-tocopherol, reference compound] returned a Trolox relative activity of 0.08.

Values taken from patent US20050042354A1, “Antiradicals and fat compositions, foods, drinks, drugs or feeds containing the antiradicals” (priority 2001, published 2005).
